Key:
OCI-Ly3 cell lines = assay: Proliferation inhibition test, ABC-DLBCL cell line OCI-Ly3; type: cell-based; details: Homo sapiens; OCI-Ly3 (ABC-DLBCL, NF-κB pathway-dependent); 96 hours; Cell Counting Kit-8; read-out: Proliferation inhibitory activity against OCI-Ly3 IC50
Protocol: (§1) In ABC-DLBCL cell lines, the NF-κB pathway is constitutively activated due to mutations in the B-cell receptor pathway. To evaluate the proliferation inhibitory activity associated with the MALT1 inhibitory activity of the test substance, a proliferation inhibition test was conducted using ABC-DLBCL cell lines.
(§2) The test substance was prepared at a concentration of 10 mM in dimethyl sulfoxide (DMSO) and further diluted with DMSO to each of concentrations of 3,000, 1,000, 300, 100, 30, and 10 µM. The solutions were further diluted 100-fold with IMDM medium containing 10% FBS to prepare test substance solutions.
(§3) OCI-Ly3 cell lines (ABC-DLBCL, NF-κB pathway-dependent) were cultured in IMDM containing 10% FBS, and SU-DHL-4 cell lines (GCB-DLBCL, NF-κB pathway-independent, used as a negative control) were cultured in RPMI-1640 containing 10% FBS. Into a 96-well plate, 2,000 cells of the OCI-Ly3 cell line and 4,000 cells of the SU-DHL-4 cell line were seeded in 100 µL per well, and 11 µL of the adjusted test substance solution was added thereto (final concentrations: 10,000, 3,000, 1,000, 300, 100, 30, and 10 nM). After 96 hours of incubation at 37°C in a 5% CO2 incubator, 10 µL of Cell Counting Kit-8 (Dojindo Laboratories) was added to each well. After 4 hours of incubation at 37°C, absorbance at 450 nm was detected using a microplate reader (EnVision, PerkinElmer).
(§4) Using the measurement data, non-linear regression analysis based on a 2-parameter logistic model was performed with Spotfire (PerkinElmer) to estimate IC50 values.

[1] = tested on: HEK293/API2-MALT1/NF-κB reporter cells; assay: Inhibition of reporter activity in HEK293/API2-MALT1/NF-κB reporter cells; type: cell-based; details: Homo sapiens, 24 hours with test substance, One-glo luminescence
Protocol: The API2-MALT1 fusion protein, expressed in MALT lymphoma, is known to constitutively activate the NF-κB pathway. To evaluate the inhibitory effect of the test substance on the NF-κB pathway in cells, a reporter activity inhibition test was conducted using HEK293/API2-MALT1/NF-κB reporter cells.
The test substance was prepared at a concentration of 10 mM in dimethyl sulfoxide (DMSO) and further diluted with DMSO to each of concentrations of 1000, 300, 100, and 10 µM. The solutions were further diluted 100-fold with DMEM medium containing 10% FBS to prepare test substance solutions.
HEK293/API2-MALT1/NF-κB reporter cells and 293T/CMV reporter cells (used as a negative control) were cultured in DMEM medium containing 10% FBS. Into a 384-well plate (#781080, Greiner), 6,000 cells were seeded in 30 µL per well, and after culturing for 24 hours, 3.3 µL of the adjusted test substance solution was added thereto (final concentrations: 10,000, 1,000, 100, and 10 nM). After culturing for 24 hours at 37°C in a 5% CO2 incubator, 33 µL of One-glo (Promega) was added to each well. After a 5-minute incubation at room temperature, luminescence was detected using a microplate reader (EnVision, PerkinElmer).
Using the measurement data, non-linear regression analysis was performed with the SAS system (SAS Institute Inc.) to estimate IC50.

SU-DHL-4 cell lines = assay: Proliferation inhibition test, GCB-DLBCL cell line SU-DHL-4 (negative control line); type: cell-based; details: Homo sapiens; SU-DHL-4 (GCB-DLBCL, NF-κB pathway-independent, negative control); 96 hours; Cell Counting Kit-8; read-out: Proliferation inhibitory activity against SU-DHL-4 IC50
Protocol: as §1, §2, §3, §4

[2] = molecular target: T1, C-terminal catalytic domain of MALT1 (amino acid residues 329-824) (Homo sapiens, UniProt Q9UDY8); assay: MALT1 protease inhibitory activity (enzyme activity inhibition assay, fluorogenic substrate); type: biochemical; details: substrate Ac-Leu-Arg-Ser-Arg-AMC 50 µM; 30°C for 2 hours; fluorescence
T1 construct: C-terminal catalytic domain of MALT1 (amino acid residues 329-824)
T1 sequence (Q9UDY8 329-824): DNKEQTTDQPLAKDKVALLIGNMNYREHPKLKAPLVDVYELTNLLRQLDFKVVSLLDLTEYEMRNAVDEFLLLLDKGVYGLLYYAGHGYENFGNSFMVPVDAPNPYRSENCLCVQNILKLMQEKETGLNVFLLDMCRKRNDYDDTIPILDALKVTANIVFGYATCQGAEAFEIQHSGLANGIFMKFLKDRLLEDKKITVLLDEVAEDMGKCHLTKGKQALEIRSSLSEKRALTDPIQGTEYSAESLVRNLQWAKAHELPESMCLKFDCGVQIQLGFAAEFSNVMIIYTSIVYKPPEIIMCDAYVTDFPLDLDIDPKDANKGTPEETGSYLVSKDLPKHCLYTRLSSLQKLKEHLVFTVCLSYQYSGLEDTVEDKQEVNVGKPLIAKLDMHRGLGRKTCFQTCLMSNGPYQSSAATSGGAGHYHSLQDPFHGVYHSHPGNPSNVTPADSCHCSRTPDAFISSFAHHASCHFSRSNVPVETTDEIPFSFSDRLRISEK
Protocol: To evaluate the enzyme inhibitory activity of a test substance against MALT1, an enzyme activity inhibition assay was conducted using the C-terminal catalytic domain of MALT1 (amino acid residues 329-824).
A test substance was prepared at a concentration of 10 mM in dimethyl sulfoxide (DMSO) and further diluted with DMSO to obtain final concentrations of 1000, 100, 10, 1, and 0.1 µM. The solutions were further diluted 25-fold with an assay buffer to prepare final test substance solutions. The composition of the assay buffer was 200 mM Tris/HCl HEPES (pH 7.5), 0.8 M Na citrate, 100 µM DTT, and 0.05% CHAPS.
The test substance solution was added to a 384-well black plate (#6007270, PerkinElmer) in an amount of 5 µL per well (n = 2; final concentrations of 10000, 1000, 100, 10, 1, and 0.1 nM), followed by the addition of 10 µL of MALT1 enzyme and finally 5 µL of a substrate solution (Ac-Leu-Arg-Ser-Arg-AMC, Peptide Institute, Inc.; final concentration in the reaction mixture: 50 µM), and after stirring, the mixture was allowed to react at 30°C for 2 hours. Fluorescence (excitation: 380 nm, emission: 460 nm) was detected using a microplate reader (EnVision, PerkinElmer).
Using the measurement data, non-linear regression analysis based on a 2-parameter logistic model was performed with Spotfire (PerkinElmer) to calculate IC50.

Row | Structure (SMILES) | IC50 (OCI-Ly3 cell lines) [nM] | IC50 [1] [nM] | IC50 (SU-DHL-4 cell lines) [nM] | IC50 [2] [nM]
1 | C[C@@H]1C[C@H](C(=O)c2cn(C)c3nc(-n4nccn4)c(Cl)cc23)CCN1c1ncncc1Br (racemic) [Example 33, [(2RS,4RS)-1-(5-bromopyrimidin-4-yl)-2-methylpiperidin-4-yl][5-chloro-1-methyl-6-(2H-1,2,3-triazol-2-yl)-1H-pyrrolo[2,3-b]pyridin-3-yl]methanone] | 790 | 640 | > 10000 | 10
2 | C[C@@H]1C[C@H](C(=O)c2cn(C)c3nc(-n4nccn4)c(Cl)cc23)CCN1c1ccc(F)cc1N (racemic) [Example 34, [(2RS,4RS)-1-(2-amino-4-fluorophenyl)-2-methylpiperidin-4-yl][5-chloro-1-methyl-6-(2H-1,2,3-triazol-2-yl)-1H-pyrrolo[2,3-b]pyridin-3-yl]methanone] | 520 | 200 | > 10000 | 13
3 | C[C@@H]1C[C@H](C(=O)c2c[nH]c3nc(C(=O)N4CCNCC4)c(Cl)cc23)CCN1c1ncc(F)cc1Cl (racemic) [Example 35, {5-chloro-3-[(2RS,4RS)-1-(3-chloro-5-fluoropyridin-2-yl)-2-methylpiperidine-4-carbonyl]-1H-pyrrolo[2,3-b]pyridin-6-yl}(piperazin-1-yl)methanone] | 630 | 390 | 9500 | 37
4 | C[C@@H]1C[C@H](C(=O)c2cn(C)c3nc(S(=O)(=O)N4CCNCC4)c(Cl)cc23)CCN1c1ncc(F)cc1Cl (racemic) [Example 36, [(2RS,4RS)-1-(3-chloro-5-fluoropyridin-2-yl)-2-methylpiperidin-4-yl][5-chloro-1-methyl-6-(piperazin-1-ylsulfonyl)-1H-pyrrolo[2,3-b]pyridin-3-yl]methanone] | 410 | 280 | 2500 | 20
5 | C[C@@H]1CC(C(=O)c2cn(CCO)c3nc(-n4nccn4)c(Cl)cc23)C[C@@H](C)N1c1ncc(F)cc1I (stereo partly drawn) [Example 4, [5-chloro-1-(2-hydroxyethyl)-6-(2H-1,2,3-triazol-2-yl)-1H-pyrrolo[2,3-b]pyridin-3-yl][(2R,6R)-1-(5-fluoro-3-iodopyridin-2-yl)-2,6-dimethylpiperidin-4-yl]methanone] | 450 | 230 | 7200 | –
6 | CCn1cc(C(=O)c2cnn(-c3cncc4c(F)cccc34)c2C(F)(F)F)c2cc(Cl)c(-c3ncccn3)nc21 [Example 13, [5-chloro-1-ethyl-6-(pyrimidin-2-yl)-1H-pyrrolo[2,3-b]pyridin-3-yl][1-(8-fluoroisoquinolin-4-yl)-5-(trifluoromethyl)-1H-pyrazol-4-yl]methanone] | 110 | 62 | 2000 | 15
7 | C[C@@H]1CC(C(=O)c2cn(CCCO)c3nc(-n4nccn4)c(Cl)cc23)C[C@@H](C)N1c1ncc(F)cc1I (stereo partly drawn) [Example 15, [5-chloro-1-(3-hydroxypropyl)-6-(2H-1,2,3-triazol-2-yl)-1H-pyrrolo[2,3-b]pyridin-3-yl][(2R,6R)-1-(5-fluoro-3-iodopyridin-2-yl)-2,6-dimethylpiperidin-4-yl]methanone] | 720 | 170 | 8400 | –
8 | C[C@@H]1CC(C(=O)c2cn(C3CCS(=O)(=O)CC3)c3nc(-n4nccn4)c(Cl)cc23)C[C@@H](C)N1c1ncc(F)cc1I (stereo partly drawn) [Example 19, [5-chloro-1-(1,1-dioxotetrahydro-2H-thiopyran-4-yl)-6-(2H-1,2,3-triazol-2-yl)-1H-pyrrolo[2,3-b]pyridin-3-yl][(2R,6R)-1-(5-fluoro-3-iodopyridin-2-yl)-2,6-dimethylpiperidin-4-yl]methanone] | 240 | 130 | 2500 | 92
9 | C[C@@H]1CC(C(=O)c2cn(C3CCOCC3)c3nc(-n4nccn4)c(Cl)cc23)C[C@@H](C)N1c1ncc(F)cc1I (stereo partly drawn) [Example 20, [5-chloro-1-(oxan-4-yl)-6-(2H-1,2,3-triazol-2-yl)-1H-pyrrolo[2,3-b]pyridin-3-yl][(2R,6R)-1-(5-fluoro-3-iodopyridin-2-yl)-2,6-dimethylpiperidin-4-yl]methanone] | 480 | 240 | 6400 | 110
10 | C[C@@H]1CC(C(=O)c2cn([C@H]3CCOC3)c3nc(-n4nccn4)c(Cl)cc23)C[C@@H](C)N1c1ncc(F)cc1I (stereo partly drawn) [Example 21, {5-chloro-1-[(3S)-oxolan-3-yl]-6-(2H-1,2,3-triazol-2-yl)-1H-pyrrolo[2,3-b]pyridin-3-yl}[(2R,6R)-1-(5-fluoro-3-iodopyridin-2-yl)-2,6-dimethylpiperidin-4-yl]methanone] | 540 | 310 | 9000 | 44
11 | C[C@@H]1CC(C(=O)c2cn([C@@H]3CCOC3)c3nc(-n4nccn4)c(Cl)cc23)C[C@@H](C)N1c1ncc(F)cc1I (stereo partly drawn) [Example 22, {5-chloro-1-[(3R)-oxolan-3-yl]-6-(2H-1,2,3-triazol-2-yl)-1H-pyrrolo[2,3-b]pyridin-3-yl}[(2R,6R)-1-(5-fluoro-3-iodopyridin-2-yl)-2,6-dimethylpiperidin-4-yl]methanone] | 530 | 280 | 8900 | 70
12 | O=C(c1cnn(-c2cccc3c(F)cccc23)c1C(F)(F)F)c1c[nH]c2nc(-n3nccn3)c(Cl)cc12 [Example 23, [5-chloro-6-(2H-1,2,3-triazol-2-yl)-1H-pyrrolo[2,3-b]pyridin-3-yl][1-(5-fluoronaphthalen-1-yl)-5-(trifluoromethyl)-1H-pyrazol-4-yl]methanone] | 870 | 190 | 9500 | 19

Reference: patent EP4772507A1, “AZAINDOLE COMPOUND AND MEDICAL DRUG” (Nippon Shinyaku Co., Ltd., priority 2023, dated 2025)
